# From patent US20100311608A1, “METHOD TO PREPARE MAGNETIC BEADS CONJUGATED WITH SMALL COMPOUNDS” (RIKEN, priority 2009, published 2010)
# System: THP-1 cells
# Assay: Amount of TNF-α released from THP-1 cells
# Format: cell-based, human
# Settings: free body, 37° C. for 4 hours, FIG. 8
# Method: Human monocyte leukemia-derived THP-1 cells (ATCC) were cultured in an RPMI1640 medium (Invitrogen/GIBCO). To the medium, 10% fetal bovine serum (JRH Bioscience), 1 mM sodium pyruvate (Invitrogen/GIBCO), 100 units/mL penicillin, and 100 μg/mL streptomycin (Invitrogen/GIBCO) were added.
# (1) The cultured Jurkat cells, derived from human T-lymphocyte leukemia cells, were recovered (1×10^6/mL), and the thus recovered cells were then centrifuged at 1000 rpm for 10 minutes. (2) After a supernatant had been removed, the residue was washed with PBS (137 mM NaCl, 3 mM KCl, 9 mM NaHPO4, 1.5 mM KH2PO4, pH 7.4). (3) The cells were suspended in 300 μL of Binding buffer ([…] Tris-HCl, 150 mM NaCl, protease inhibitor cocktail, pH 7.5). (4) The cells were disintegrated by an ultrasonic wave treatment, and the disintegration of the cells was then observed under a microscope. […] (6) The protein concentration in the cell extract of the supernatant was measured, and the extract was then diluted with Lysis buffer (137 mM NaCl, 3 mM KCl, 9 mM NaHPO4, 1.5 mM KH2PO4, protease inhibitor cocktail, pH 7.4), resulting in a final protein concentration of 5 mg/mL. […] The amount of TNF-α contained in this supernatant was measured. […] (9) 50 μL of Stop solution was added to the resultant, and the absorption spectrum at 450 nm was then measured. […]
substance,measurement,value
Lipid A,responsiveness in the THP cells (TNF-α release),not so high
